Measurements taken from patent US20080175794A1, “Substituted Pyridazinyl- and Pyrimidinyl-Quinolin-4-Ylamine Analogues” (NEUROGEN CORPORATION, priority 2005, published 2008).

molecular target: T1, human capsaicin receptor (Homo sapiens, UniProt Q8NER1); assay: Calcium mobilization assay, determination of antagonist activity (Example 6); assay type: cell-based; details: Table III; assay provided in Example 6; cells expressing human capsaicin receptor, capsaicin at EC50
T1 construct: expressed in transfected cells
T1 sequence (Q8NER1 whole entry): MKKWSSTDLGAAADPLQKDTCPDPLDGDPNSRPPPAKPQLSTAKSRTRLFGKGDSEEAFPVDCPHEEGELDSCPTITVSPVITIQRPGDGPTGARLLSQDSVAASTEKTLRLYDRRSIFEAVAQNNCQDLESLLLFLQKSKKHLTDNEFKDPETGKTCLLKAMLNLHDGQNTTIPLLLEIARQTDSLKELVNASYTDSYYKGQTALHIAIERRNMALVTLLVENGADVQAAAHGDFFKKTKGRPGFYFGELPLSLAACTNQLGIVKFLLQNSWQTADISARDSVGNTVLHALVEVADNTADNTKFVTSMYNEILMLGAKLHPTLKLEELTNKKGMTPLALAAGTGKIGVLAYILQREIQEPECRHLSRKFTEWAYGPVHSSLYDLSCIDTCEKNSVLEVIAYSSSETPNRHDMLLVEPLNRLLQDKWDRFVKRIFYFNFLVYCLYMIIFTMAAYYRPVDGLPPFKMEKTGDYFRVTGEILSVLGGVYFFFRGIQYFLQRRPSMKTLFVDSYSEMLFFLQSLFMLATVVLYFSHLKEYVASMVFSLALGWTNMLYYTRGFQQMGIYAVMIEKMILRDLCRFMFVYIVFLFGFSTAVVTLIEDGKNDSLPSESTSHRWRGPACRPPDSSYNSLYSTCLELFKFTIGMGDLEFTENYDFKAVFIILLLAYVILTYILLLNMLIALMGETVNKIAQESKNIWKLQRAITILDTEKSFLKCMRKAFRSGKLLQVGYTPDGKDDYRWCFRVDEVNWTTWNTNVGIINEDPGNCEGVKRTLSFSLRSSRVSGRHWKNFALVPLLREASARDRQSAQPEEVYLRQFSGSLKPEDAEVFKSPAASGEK
Summary of the method: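 Stable HEK293 clones expressing full-length human capsaicin receptor, loaded with Fluo-3 AM in KRH buffer pH 7.4 (1–2 h, 37 °C). Test compound (1–5 μM final) preincubated 0.5–6 h at room temperature in the dark, then capsaicin added at its EC50. FLIPR/Fluoroskan calcium signal; IC50 as concentration halving the capsaicin response.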

IC50, < 1000 nM:
FC(F)(F)c1ccc(Nc2ccnc3nc(-c4nnc(N5CCCCCC5)cc4C(F)(F)F)cnc23)nc1 [Compound 178, 3-[6-azepan-1-yl-4-(trifluoromethyl)pyridazin-3-yl]-N-[5-(trifluoromethyl)pyridin-2-yl]pyrido[2,3-b]pyrazin-8-amine]
CC1CCCN1c1cc(C(F)(F)F)c(-c2cnc3c(Nc4ccc(C(F)(F)F)cn4)ccnc3n2)nn1 (stereo not shown) [Compound 129, 3-[6-(2-methylpyrrolidin-1-yl)-4-(trifluoromethyl)pyridazin-3-yl]-N-[5-(trifluoromethyl)pyridin-2-yl]pyrido[2,3-b]pyrazin-8-amine]
CCN(CC)c1cc(C(F)(F)F)c(-c2cnc3c(Nc4ccc(C(F)(F)F)cn4)ccnc3n2)nn1 [Compound 126, 3-[6-(diethylamino)-4-(trifluoromethyl)pyridazin-3-yl]-N-[5-(trifluoromethyl)pyridin-2-yl]pyrido[2,3-b]pyrazin-8-amine]
FC(F)(F)c1ccc(Nc2ccnc3nc(-c4nnc(N5CCCC5)cc4C(F)(F)F)cnc23)nc1 [Compound 120, 3-[6-pyrrolidin-1-yl-4-(trifluoromethyl)pyridazin-3-yl]-N-[5-(trifluoromethyl)pyridin-2-yl]pyrido[2,3-b]pyrazin-8-amine]
COCCCNc1cc(C(F)(F)F)c(-c2cnc3c(Nc4ccc(C(F)(F)F)cn4)ccnc3n2)nn1 [Compound 164, 3-{6-[(3-methoxypropyl)amino]-4-(trifluoromethyl)pyridazin-3-yl}-N-[5-(trifluoromethyl)pyridin-2-yl]pyrido[2,3-b]pyrazin-8-amine]
CC(C)N(C)c1cc(C(F)(F)F)c(-c2cnc3c(Nc4ccc(C(F)(F)F)cn4)ccnc3n2)nn1 [Compound 185, 3-{6-[isopropyl(methyl)amino]-4-(trifluoromethyl)pyridazin-3-yl}-N-[5-(trifluoromethyl)pyridin-2-yl]pyrido[2,3-b]pyrazin-8-amine]
CCC(C)CNc1cc(C(F)(F)F)c(-c2cnc3c(Nc4ccc(C(F)(F)F)cn4)ccnc3n2)nn1 (stereo not shown) [Compound 154, 3-{6-[(2-methylbutyl)amino]-4-(trifluoromethyl)pyridazin-3-yl}-N-[5-(trifluoromethyl)pyridin-2-yl]pyrido[2,3-b]pyrazin-8-amine]
CC1CCN(c2cc(C(F)(F)F)c(-c3cnc4c(Nc5ccc(C(F)(F)F)cn5)ccnc4n3)nn2)CC1 [Compound 177, 3-[6-(4-methylpiperidin-1-yl)-4-(trifluoromethyl)pyridazin-3-yl]-N-[5-(trifluoromethyl)pyridin-2-yl]pyrido[2,3-b]pyrazin-8-amine]
CN(C)C(=O)CNc1cc(C(F)(F)F)c(-c2cnc3c(Nc4ccc(C(F)(F)F)cn4)ccnc3n2)nn1 [Compound 167, N,N-dimethyl-N2-[5-(trifluoromethyl)-6-(8-{[5-(trifluoromethyl)pyridin-2-yl]amino}pyrido[2,3-b]pyrazin-3-yl)pyridazin-3-yl]glycinamide]
CN(C)c1cc(C(F)(F)F)c(-c2cnc3c(Nc4ccc(C(F)(F)F)cn4)ccnc3n2)nn1 [Compound 54, 3-[6-(dimethylamino)-4-(trifluoromethyl)pyridazin-3-yl]-N-[5-(trifluoromethyl)pyridin-2-yl]pyrido[2,3-b]pyrazin-8-amine]
FC(F)(F)c1ccc(Nc2ccnc3nc(-c4nnc(NCC5CC5)cc4C(F)(F)F)cnc23)nc1 [Compound 103, 3-{6-[(cyclopropylmethyl)amino]-4-(trifluoromethyl)pyridazin-3-yl}-N-[5-(trifluoromethyl)pyridin-2-yl]pyrido[2,3-b]pyrazin-8-amine]
C=CCNc1cc(C(F)(F)F)c(-c2cnc3c(Nc4ccc(C(F)(F)F)cn4)ccnc3n2)nn1 [Compound 152, 3-[6-(allylamino)-4-(trifluoromethyl)pyridazin-3-yl]-N-[5-(trifluoromethyl)pyridin-2-yl]pyrido[2,3-b]pyrazin-8-amine]
CCN1CCCC1CNc1cc(C(F)(F)F)c(-c2cnc3c(Nc4ccc(C(F)(F)F)cn4)ccnc3n2)nn1 (stereo not shown) [Compound 76, 3-[6-{[(1-ethylpyrrolidin-2-yl)methyl]amino}-4-(trifluoromethyl)pyridazin-3-yl]-N-[5-(trifluoromethyl)pyridin-2-yl]pyrido[2,3-b]pyrazin-8-amine]
CCN(CCN(C)C)c1cc(C(F)(F)F)c(-c2cnc3c(Nc4ccc(C(F)(F)F)cn4)ccnc3n2)nn1 [Compound 94, N-ethyl-N′,N′-dimethyl-N-[5-(trifluoromethyl)-6-(8-{[5-(trifluoromethyl)pyridin-2-yl]amino}pyrido[2,3-b]pyrazin-3-yl)pyridazin-3-yl]ethane-1,2-diamine]
FC(F)(F)c1ccc(Nc2ccnc3nc(-c4nnc(NCc5cccnc5)cc4C(F)(F)F)cnc23)nc1 [Compound 78, 3-{6-[(pyridin-3-ylmethyl)amino]-4-(trifluoromethyl)pyridazin-3-yl}-N-[5-(trifluoromethyl)pyridin-2-yl]pyrido[2,3-b]pyrazin-8-amine]
FC(F)(F)c1ccc(Nc2ccnc3nc(-c4nnc(NCCCN5CCCC5)cc4C(F)(F)F)cnc23)nc1 [Compound 77, 3-{6-[(3-pyrrolidin-1-ylpropyl)amino]-4-(trifluoromethyl)pyridazin-3-yl}-N-[5-(trifluoromethyl)pyridin-2-yl]pyrido[2,3-b]pyrazin-8-amine]
CN(C)CCNc1cc(C(F)(F)F)c(-c2cnc3c(Nc4ccc(C(F)(F)F)cn4)ccnc3n2)nn1 [Compound 69, N,N-dimethyl-N′-[5-(trifluoromethyl)-6-(8-{[5-(trifluoromethyl)pyridin-2-yl]amino}pyrido[2,3-b]pyrazin-3-yl)pyridazin-3-yl]ethane-1,2-diamine]
CN1CCCC1CCNc1cc(C(F)(F)F)c(-c2cnc3c(Nc4ccc(C(F)(F)F)cn4)ccnc3n2)nn1 (stereo not shown) [Compound 72, 3-[6-{[2-(1-methylpyrrolidin-2-yl)ethyl]amino}-4-(trifluoromethyl)pyridazin-3-yl]-N-[5-(trifluoromethyl)pyridin-2-yl]pyrido[2,3-b]pyrazin-8-amine]
CC(=O)c1cc(C(F)(F)F)c(-c2cnc3c(Nc4ccc(C(F)(F)F)cn4)ccnc3n2)nn1 [Compound 68, 1-[5-(trifluoromethyl)-6-(8-{[5-(trifluoromethyl)pyridin-2-yl]amino}pyrido[2,3-b]pyrazin-3-yl)pyridazin-3-yl]ethanone]
FC(F)(F)c1ccc(Nc2ccnc3nc(-c4nnc(NCCCCN5CCCC5)cc4C(F)(F)F)cnc23)nc1 [Compound 84, 3-{6-[(4-pyrrolidin-1-ylbutyl)amino]-4-(trifluoromethyl)pyridazin-3-yl}-N-[5-(trifluoromethyl)pyridin-2-yl]pyrido[2,3-b]pyrazin-8-amine]
CN(CC(N)=O)c1cc(C(F)(F)F)c(-c2cnc3c(Nc4ccc(C(F)(F)F)cn4)ccnc3n2)nn1 [Compound 57, N2-methyl-N2-[5-(trifluoromethyl)-6-(8-{[5-(trifluoromethyl)pyridin-2-yl]amino}pyrido[2,3-b]pyrazin-3-yl)pyridazin-3-yl]glycinamide]
CN1CCC(N(C)c2cc(C(F)(F)F)c(-c3cnc4c(Nc5ccc(C(F)(F)F)cn5)ccnc4n3)nn2)C1 (stereo not shown) [Compound 97, 3-{6-[methyl(1-methylpyrrolidin-3-yl)amino]-4-(trifluoromethyl)pyridazin-3-yl}-N-[5-(trifluoromethyl)pyridin-2-yl]pyrido[2,3-b]pyrazin-8-amine]
CCCN(CCO)c1cc(C(F)(F)F)c(-c2cnc3c(Nc4ccc(C(F)(F)F)cn4)ccnc3n2)nn1 [Compound 134, 2-{propyl[5-(trifluoromethyl)-6-(8-{[5-(trifluoromethyl)pyridin-2-yl]amino}pyrido[2,3-b]pyrazin-3-yl)pyridazin-3-yl]amino}ethanol]
FC(F)(F)c1ccc(Nc2ccnc3nc(-c4nnc(NCC5CCCO5)cc4C(F)(F)F)cnc23)nc1 (stereo not shown) [Compound 112, 3-{6-[(tetrahydrofuran-2-ylmethyl)amino]-4-(trifluoromethyl)pyridazin-3-yl}-N-[5-(trifluoromethyl)pyridin-2-yl]pyrido[2,3-b]pyrazin-8-amine]
CC(C)(C)Nc1cc(C(F)(F)F)c(-c2cnc3c(Nc4ccc(C(F)(F)F)cn4)ccnc3n2)nn1 [Compound 161, 3-[6-(tert-butylamino)-4-(trifluoromethyl)pyridazin-3-yl]-N-[5-(trifluoromethyl)pyridin-2-yl]pyrido[2,3-b]pyrazin-8-amine]
CC(C)CCNc1cc(C(F)(F)F)c(-c2cnc3c(Nc4ccc(C(F)(F)F)cn4)ccnc3n2)nn1 [Compound 106, 3-{6-[(3-methylbutyl)amino]-4-(trifluoromethyl)pyridazin-3-yl}-N-[5-(trifluoromethyl)pyridin-2-yl]pyrido[2,3-b]pyrazin-8-amine]

same assay, conditions: assay provided in Example 6; cells expressing human capsaicin receptor, capsaicin at EC50

IC50, < 1000 nM:
FC(F)(F)c1ccc(Nc2ccnc3nc(-c4nnccc4C(F)(F)F)ccc23)nc1 [Compound 1, N-[5-(Trifluoromethyl)pyridin-2-yl]-7-[4-(trifluoromethyl)pyridazin-3-yl]-1,8-naphthyridin-4-amine]
FC(F)(F)c1ccc(Nc2ccnc3nc(-c4nnccc4C(F)(F)F)cnc23)nc1 [Compound 2, N-[5-(Trifluoromethyl)pyridin-2-yl]-3-[4-(trifluoromethyl)pyridazin-3-yl]pyrido[2,3-b]pyrazin-8-amine]
